This note sets out measurements from patent publication US12655114B2, “Ionizable lipid compounds and lipid nanoparticle compositions” (SunVax mRNA Therapeutics Inc., priority 2022, dated 2026).

The first assay relates to 293T cells. The assay is described as follows: GFP expression in 293T cells treated with LNP-SamRNA-GFP (formulation optimization, FACS). Conditions: LNPs with self-amplifying mRNA encoding GFP, FIG. 22. Type of assay: cell-based. Here is the method: (§1) The LNPs containing SamRNA-GFP (or SamRNA-LUC, 100 ng/well) were added into 96-well plate which was pre-seeded with 293T, C2C12 or MC38 cells. After 24 hours incubation at 37° C. and 5% CO2, the luciferase SamRNA transfection efficiency was measured by plate reader (Perkin Elmer Envision 2104). The GFP SamRNA transfection efficiency was measured by flow cytometry (BD FACSymphony™ A5 SE Cell Analyzer).
An orthogonal experimental design was applied to optimize the formulation of synthesized ionizable lipids, DOPE, Chol and DMG-PEG2000 that encapsulated samRNA-GFP. Library A contained 16 formulations with four factors and four levels.
In Library A, the 293T cells were treated in different amounts of LNPs ([…] of SamRNA-GFP). The delivery efficiency of LNPs-SamRNA-GFP of A-6, A-9, A-10, A-13 show more than 60% GFP expression when the 293T cells were transfected with 50, 25 and 12.5 ng of mRNA (FIG. 14). The samRNA-GFP delivery efficiency increased with the molar ratios of Chol and DOPE increase, while increased the molar ratios of P6A2 and DMG-PEG2000 reduced the samRNA-GFP delivery efficiency (FIG. 15).
A second orthogonal experimental design was applied to optimize the formulation of LNPs. In Library B, the 293T cells were treated with 50 or 12.5 ng of samRNA-GFP (FIG. 16).
With `CCCCCCCCCCCCC(CCCCCCCCCC)CNCCC(=O)OC1CC(OC(=O)CCNCC(CCCCCCCCCC)CCCCCCCCCCCC)CC(OC(=O)CCNCC(CCCCCCCCCC)CCCCCCCCCCCC)C1` (stereo not drawn) [P7], the “delivery efficacies compared with FDA approved ionizable lipid MC3” value is “better delivery efficacies than FDA approved ionizable lipid MC3”.

With `CCCCCCCCCCCCCCN(CCCCCCCCCCCCCC)CCC(=O)OC1CC(OC(=O)CCN(CCCCCCCCCCCCCC)CCCCCCCCCCCCCC)CC(OC(=O)CCN(CCCCCCCCCCCCCC)CCCCCCCCCCCCCC)C1` (stereo not drawn) [T7], the “delivery efficacies compared with FDA approved ionizable lipid MC3” value was “better delivery efficacies than FDA approved ionizable lipid MC3”.

Another assay deals with 293T, C2C12 or MC38 cells. Nature of the assay: SamRNA-GFP transfection efficiency of LNPs by flow cytometry. Conditions: LNP-SamRNA-GFP formulated with the lipid; FIGS. 4-6, 8-10. Type of assay: cell-based. The protocol:
The delivery system used to deliver the GFP-mRNA transfect are LNPs formulated using 12 individual ionizable lipids synthesized by three-component reactions. To generate the LNP encapsulated self-amplifying mRNA, the ionizable lipids of the present disclosure were dissolved in ethanol and directly added into an ethanol solution containing DOPE, cholesterol and DMG-PEG2000 at predetermined molar ratio. Self-amplifying mRNA encoding GFP sequences aqueous solution was mixed and the LNP mixture (100 ng mRNA) was added to a 96-well plate pre-seeded with MC38, C2C12 or 293T cells. The cells were incubated at 5% CO2 and 37° C. overnight. The GFP mRNA transfection efficiency was measured by flow cytometry.
E6, an ionizable lipid of the disclosure, was formulated into LNPs with 1,2-Dioleoyl-sn-glycero-3-phosphoethanolamine (DOPE), cholesterol (Chol), methoxypolyethylene glycol (DMG-PEG2000) with a mole ratio of 50/10/38.5/1.5 (ionizable lipid/DOPE/Chol/DMG-PEG2000) encapsulated self-amplifying mRNA or DNA encoding with reporter genes either green fluorescent protein (samRNA-GFP or DNA-CMV-EGFP) or firefly Luciferase (samRNA-LUC). Formulations containing 100 ng of self-amplifying mRNA were incubated to a well of 96-well plate with 60-70% confluent of HEK293, or C2C12, or MC38 cells (FIGS. 10, 23). The transfection efficiency was determined by flow cytometry for detection of GFP, or plate reader for detection of luciferase. LNP formulated using FDA approved ionizable lipid MC3 was used as a control (FIG. 10).
as §1
For `CCCCCCCCN(CCCCCCCC)C(c1ccc(C(c2ccccc2O)N(CCCCCCCC)CCCCCCCC)cc1)c1ccccc1O` (stereo not drawn) [TP1A11, 2,2′-(1,4-phenylenebis((dioctylamino)methylene))diphenol], the “delivery of mRNA-GFP compared with FDA approved ionizable lipid MC3” value is recorded as “more effectively deliver mRNA-GFP”.

As to `CCCCCCCCCCCCCN(CCCCCCCCCCCCC)C(c1ccc(CCCCCCCCCCCC)cc1)c1ccccc1O` (stereo not drawn) [TP3F11, 2-((ditridecylamino)(4-dodecylphenyl)methyl)phenol], the “delivery of mRNA-GFP compared with FDA approved ionizable lipid MC3” value is listed as “more effectively deliver mRNA-GFP”.

For the molecule `CCCCCCCCCCCCCCN(CCCCCCCCCCCCCC)C(c1ccc(CCCCCCCCCCCC)cc1)c1ccccc1O` (stereo not drawn) [TP3G11, 2-((ditetradecylamino)(4-dodecylphenyl)methyl)phenol], the “delivery of mRNA-GFP compared with FDA approved ionizable lipid MC3” value is listed as “more effectively deliver mRNA-GFP”.

With `CCCCCCCCCCCCCCN(CCCCCCCCCCCCCC)C(c1cccs1)c1ccccc1O` (stereo not drawn) [TP4G11, 2-((ditetradecylamino)(thiophen-2-yl)methyl)phenol], the “delivery of mRNA-GFP compared with FDA approved ionizable lipid MC3” value is “more effectively deliver mRNA-GFP”.
